Results as given in patent US11753407B2, “Compounds for treating spinal muscular atrophy” (PTC Therapeutics, Inc., priority 2012, dated 2023).

Legend:
[1] = tested on: SMN2 minigene mRNA (SMN2-A minigene) in HEK293H cells; test: SMN2 minigene mRNA splicing RT-qPCR assay in cultured cells; type: cell-based, human; settings: Homo sapiens, HEK293-H; concentration increasing full length SMN2 mRNA 1.5-fold relative to vehicle-treated cells; HEK293H cells with SMN2-A minigene, 24 hours, 7-point concentration data; read-out: EC1.5x for production of full length SMN2 mRNA
Method in brief: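 HEK293H cells stably carrying SMN2-A minigene treated with compounds (7-point, 3.16-fold dilutions, duplicates) for 24 h at 37 °C. Full-length exon 7-containing minigene mRNA measured by multiplex RT-qPCR with GAPDH, normalized and expressed relative to vehicle (modified ΔΔCt); EC1.5× is concentration giving 1.5-fold increase.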

[2] = tested on: Smn protein in SMA patient fibroblast cells (GM03813); test: Smn protein assay in cultured cells (SMN HTRF); type: cell-based, human; settings: SMA patient fibroblast cells, 48 hours; for EC1.5x for Smn protein expression: 7-point concentration curve, SMN HTRF, concentration producing 1.5 times Smn protein vs DMSO vehicle control; for maximum fold (Fold) increase of Smn protein: 7-point concentration data, fold relative to vehicle control
Method in brief: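 SMA patient fibroblasts (5,000/well, DMEM-10% FBS) treated 48 h at 37° C with 7-point, 3.16-fold compound series in triplicate; lysates read by SMN HTRF (665/620 nm ratio). Fold Smn increase over DMSO vehicle derived; EC1.5× is concentration giving 1.5-fold Smn, with maximum fold also reported.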

SMILES | EC (1.5-fold increase) [1] | melting point | EC1.5x for Smn protein expression [2] | maximum fold (Fold) increase of Smn protein [2]
CCc1nc(C)cn2cc(-c3cc(=O)n4cc(N5CCN6CCC[C@H]6C5)ccc4n3)cc12 [Compound 782, 2-(1-ethyl-3-methylpyrrolo[1,2-a]pyrazin-7-yl)-7-[(8aS)-hexahydropyrrolo[1,2-a]pyrazin-2(1H)-yl]-4H-pyrido[1,2-a]pyrimidin-4-one] | < 0.1 µM | 220 to 222 °C | **** (an EC1.5x≤0.3 μM is indicated by four stars (****)) | ***** (a fold increase >1.65 is indicated by five stars (*****))
CCc1nc(C)cn2nc(-c3cc(=O)n4cc(N5CCN[C@H](C)C5)cc(C)c4n3)cc12 [Compound 783, 2-(4-ethyl-6-methylpyrazolo[1,5-a]pyrazin-2-yl)-9-methyl-7-[(3R)-3-methylpiperazin-1-yl]-4H-pyrido[1,2-a]pyrimidin-4-one] | < 0.1 µM | 223 to 233 °C | **** (an EC1.5x≤0.3 μM is indicated by four stars (****)) | ***** (a fold increase >1.65 is indicated by five stars (*****))
Cc1cc(C2CCN(C)CC2)cn2c(=O)cc(-c3ccc4c(cnn4C)c3)nc12 [Compound 784, 9-methyl-2-(1-methyl-1H-indazol-5-yl)-7-(1-methylpiperidin-4-yl)-4H-pyrido[1,2-a]pyrimidin-4-one] | 0.1 to 0.3 µM | 255 to 263 °C | *** (an EC1.5× between >0.3 μM and ≤1 μM is indicated by three stars (***)) | **** (a fold increase between >1.5 and ≤1.65 is indicated by four stars (****))
CCc1nc(C)cn2nc(-c3cc(=O)n4cc(N5CCN(C)[C@H](C)C5)cc(C)c4n3)cc12 [Compound 785, 7-[(3R)-3,4-dimethylpiperazin-1-yl]-2-(4-ethyl-6-methylpyrazolo[1,5-a]pyrazin-2-yl)-9-methyl-4H-pyrido[1,2-a]pyrimidin-4-one] | < 0.1 µM | 234 to 240 °C | **** (an EC1.5x≤0.3 μM is indicated by four stars (****)) | ***** (a fold increase >1.65 is indicated by five stars (*****))
CCN1CCC(c2cc(C)c3nc(-c4ccc5c(cnn5C)c4)cc(=O)n3c2)CC1 [Compound 786, 7-(1-ethylpiperidin-4-yl)-9-methyl-2-(1-methyl-1H-indazol-5-yl)-4H-pyrido[1,2-a]pyrimidin-4-one] | 0.1 to 0.3 µM | 236 to 240 °C | *** (an EC1.5× between >0.3 μM and ≤1 μM is indicated by three stars (***)) | **** (a fold increase between >1.5 and ≤1.65 is indicated by four stars (****))
CCc1nc(C)cn2nc(-c3cc(=O)n4cc(N5CCN[C@@H](C)C5)cc(C)c4n3)cc12 [Compound 787, 2-(4-ethyl-6-methylpyrazolo[1,5-a]pyrazin-2-yl)-9-methyl-7-[(3S)-3-methylpiperazin-1-yl]-4H-pyrido[1,2-a]pyrimidin-4-one] | < 0.1 µM | 227 to 236 °C | **** (an EC1.5x≤0.3 μM is indicated by four stars (****)) | ***** (a fold increase >1.65 is indicated by five stars (*****))
Cc1cc(C2CCN(CCO)CC2)cn2c(=O)cc(-c3ccc4c(cnn4C)c3)nc12 [Compound 788, 7-[1-(2-hydroxyethyl)piperidin-4-yl]-9-methyl-2-(1-methyl-1H-indazol-5-yl)-4H-pyrido[1,2-a]pyrimidin-4-one] | < 0.1 µM | 225 to 228 °C | **** (an EC1.5x≤0.3 μM is indicated by four stars (****)) | ***** (a fold increase >1.65 is indicated by five stars (*****))
CCc1nc(C)cn2nc(-c3cc(=O)n4cc(N5CCN(C)[C@@H](C)C5)cc(C)c4n3)cc12 [Compound 789, 7-[(3S)-3,4-dimethylpiperazin-1-yl]-2-(4-ethyl-6-methylpyrazolo[1,5-a]pyrazin-2-yl)-9-methyl-4H-pyrido[1,2-a]pyrimidin-4-one] | < 0.1 µM | 235 to 241 °C | **** (an EC1.5x≤0.3 μM is indicated by four stars (****)) | ***** (a fold increase >1.65 is indicated by five stars (*****))
Cc1nc(C2=CCNCC2)cn2c(=O)cc(-c3ccc4nn(C)cc4c3)nc12 [Compound 791, 9-methyl-2-(2-methyl-2H-indazol-5-yl)-7-(1,2,3,6-tetrahydropyridin-4-yl)-4H-pyrazino[1,2-a]pyrimidin-4-one] | < 0.1 µM | > 240 °C (dec.) | **** (an EC1.5x≤0.3 μM is indicated by four stars (****)) | ***** (a fold increase >1.65 is indicated by five stars (*****))
CCc1nc(C)cn2nc(-c3cc(=O)n4cc(C5CCN(C6CCC6)CC5)cc(C)c4n3)cc12 [Compound 792, 7-(1-cyclobutylpiperidin-4-yl)-2-(4-ethyl-6-methylpyrazolo[1,5-a]pyrazin-2-yl)-9-methyl-4H-pyrido[1,2-a]pyrimidin-4-one] | < 0.1 µM | 231 to 237 °C | *** (an EC1.5× between >0.3 μM and ≤1 μM is indicated by three stars (***)) | ***** (a fold increase >1.65 is indicated by five stars (*****))
CCc1nc(C)cn2nc(-c3cc(=O)n4cc(C5CCN(CCO)CC5)cc(C)c4n3)cc12 [Compound 793, 2-(4-ethyl-6-methylpyrazolo[1,5-a]pyrazin-2-yl)-7-[1-(2-hydroxyethyl)piperidin-4-yl]-9-methyl-4H-pyrido[1,2-a]pyrimidin-4-one] | < 0.1 µM | 210 to 216 °C | **** (an EC1.5x≤0.3 μM is indicated by four stars (****)) | ***** (a fold increase >1.65 is indicated by five stars (*****))
CCc1cc(-c2cc(=O)n3cc(N4CCN5CCC[C@@H]5C4)ccc3n2)cn2cc(C)nc12 [Compound 794, 2-(8-ethyl-2-methylimidazo[1,2-a]pyridin-6-yl)-7-[(8aR)-hexahydropyrrolo[1,2-a]pyrazin-2(1H)-yl]-4H-pyrido[1,2-a]pyrimidin-4-one] | < 0.1 µM | 231 to 235 °C | **** (an EC1.5x≤0.3 μM is indicated by four stars (****)) | ***** (a fold increase >1.65 is indicated by five stars (*****))
CCc1cc(-c2cc(=O)n3cc(N4CCN5CCC[C@H]5C4)ccc3n2)cn2cc(C)nc12 [Compound 795, 2-(8-ethyl-2-methylimidazo[1,2-a]pyridin-6-yl)-7-[(8aS)-hexahydropyrrolo[1,2-a]pyrazin-2(1H)-yl]-4H-pyrido[1,2-a]pyrimidin-4-one] | < 0.1 µM | 229 to 233 °C | **** (an EC1.5x≤0.3 μM is indicated by four stars (****)) | ***** (a fold increase >1.65 is indicated by five stars (*****))
Cc1nc(C2CCNCC2)cn2c(=O)cc(-c3ccc4nn(C)cc4c3)nc12 [Compound 796, 9-methyl-2-(2-methyl-2H-indazol-5-yl)-7-(piperidin-4-yl)-4H-pyrazino[1,2-a]pyrimidin-4-one] | < 0.1 µM | 229 to 235 °C | **** (an EC1.5x≤0.3 μM is indicated by four stars (****)) | ***** (a fold increase >1.65 is indicated by five stars (*****))
Cc1cn2nc(-c3cc(=O)n4cc(N5CC[C@H](CN)C5)ccc4n3)cc2c(C)n1 [Compound 797, 7-[(3R)-3-(aminomethyl)pyrrolidin-1-yl]-2-(4,6-dimethylpyrazolo[1,5-a]pyrazin-2-yl)-4H-pyrido[1,2-a]pyrimidin-4-one] | 1 to 3 µM | 214 to 217 °C | * (An EC1.5× for Smn protein expression between >3 μM and ≤10 μM is indicated by one star (*)) | *** (a fold increase between >1.35 and ≤1.5 is indicated by three stars (***))
Cc1cn2nc(-c3cc(=O)n4cc(N5CC[C@H](CN(C)C)C5)ccc4n3)cc2c(C)n1 [Compound 799, 7-{(3R)-3-[(dimethylamino)methyl]pyrrolidin-1-yl}-2-(4,6-dimethylpyrazolo[1,5-a]pyrazin-2-yl)-4H-pyrido[1,2-a]pyrimidin-4-one] | < 0.1 µM | 229 to 231 °C | **** (an EC1.5x≤0.3 μM is indicated by four stars (****)) | ***** (a fold increase >1.65 is indicated by five stars (*****))
Cc1cn2nc(-c3cc(=O)n4cc(C5C[C@H](C)N[C@@H](C)C5)ccc4n3)cc2c(C)n1 (stereo partly drawn) [Compound 800, 7-[(2S,6S)-2,6-dimethylpiperidin-4-yl]-2-(4,6-dimethylpyrazolo[1,5-a]pyrazin-2-yl)-4H-pyrido[1,2-a]pyrimidin-4-one] | < 0.1 µM | 248 to 250 °C | **** (an EC1.5x≤0.3 μM is indicated by four stars (****)) | ***** (a fold increase >1.65 is indicated by five stars (*****))
